Measurements published in patent US12540131B2 (Merck Sharp & Dohme LLC, priority 2019, dated 2026).

target: GST tagged truncated human mutant G2019S LRRK2 (Homo sapiens (Human), UniProt Q5S007, G2019S); assay: LRRK2 Km ATP LanthaScreen Assay; type: biochemical; settings: G2019S LRRK2, 134 μM ATP (Km ATP), mean values
Experimental: General Experimental Information: • Unless otherwise noted, all reactions are magnetically stirred. Unless otherwise noted, when diethyl ether is used in the experiments described below, it is Fisher ACS certified material and is stabilized with BHT. Unless otherwise noted, “concentrated” and/or “solvent removed under reduced pressure” means evaporating the solvent from a solution or mixture using a rotary evaporator or vacuum pump. Unless otherwise noted, flash chromatography is carried out on a Teledyne Isco (Lincoln, NE), Analogix (Burlington, WI), or Biotage (Stockholm, SWE) automated chromatography system using a commercially available cartridge as the column. Columns may be purchased from Teledyne Isco, Analogix, Biotage, Varian (Palo Alto, CA), or Supelco (Bellefonte, PA) and are usually filled with silica gel as the stationary phase. Reverse phase prep-HPLC conditions, where used, can be found at the end of each experimental section. Aqueous solutions were concentrated on a Genevac (Ipswich, ENG) or by freeze-drying/lyophilization. Unless otherwise noted, all LRRK2 pIC50 data presented in tables refers to the LRRK2 G2019S Km ATP LanthaScreen™ assay (Life Technologies Corp., Carlsbad, CA) that is described in the Biological Assay section.
The pIC50 values reported herein were measured as follows.
Biological Assay: LRRK2 Km ATP LanthaScreen™ Assay
Compound potency against LRRK2 kinase activity was determined using LanthaScreen™ technology from Life Technologies Corporation (Carlsbad, CA) using a GST20 tagged truncated human mutant G2019S LRRK2 in the presence of the fluorescein-labeled peptide substrate LRRKtide® (LRRK2 phosphorylated ezrin/radixin/moesin (ERM)), also from Life Technologies. The data presented for the Km ATP LanthaScreen™ Assay represents mean IC50 values based on several test results and may have reasonable deviations depending on the specific conditions and reagents used. Km is the Michaelis constant of an enzyme and is defined as the concentration of native substrate (ATP for a kinase) which permits the enzyme to achieve half Vmax (Vmax=rate of reaction when the enzyme is saturated with substrate). IC50 (half-maximal inhibitory concentration) represents the concentration of inhibitor required to inhibit LRRK2 kinase activity by 50%. Assays were performed in the presence of 134 μM ATP (Km ATP). Upon completion, the assay was stopped, and phosphorylated substrate detected with a terbium (Tb)-labeled anti-pERM antibody (cat. no. PV4898). The compound dose response was prepared by diluting a 10 mM stock of compound to a maximum concentration of 9.99 μM in 100% DMSO, followed by custom fold serial dilution in DMSO nine times. 20 nL of each dilution was spotted via a Labcyte Echo onto a 384-well black-sided plate (Corning 3575) followed by 15 μl of a 1.25 nM enzyme solution in 1× assay buffer (50 mM Tris pH 8.5, 10 mM MgCl2, 0.01% Brij-35, 1 mM EGTA, 2 mM dithiothreitol, 0.05 mM sodium orthovanadate). Following a 15-minute incubation period at RT, the kinase reaction was started with the addition of 5 μl of 400 nM fluorescein-labeled LRRKtide® (LRRK2 phosphorylated ezrin/radixin/moesin (ERM)) peptide substrate and 134 μM ATP solution in 1× assay buffer. The reaction was allowed to progress at ambient temperature for 90 minutes. The reaction was then stopped by the addition of 20 μl of TR-FRET Dilution Buffer (Life Technologies, Carlsbad, CA) containing 2 nM Tb-labeled anti-phospho LRRKtide® (LRRK2 phosphorylated ezrin/radixin/moesin (ERM)) antibody and 10 mM EDTA (Life Technologies, Carlsbad, CA). After an incubation period of 1 h at RT, the plate was read on an EnVision® multimode plate reader (Perkin Elmer, Waltham, MA) with an excitation wavelength of 337 nm (Laser) and a reading emission at both 520 and 495 nm. Compound IC50 values were interpolated from nonlinear regression best-fits of the log of the final compound concentration, plotted as a function of the 520/495-nm emission ratio using activity base “Abase”). […]

Sequence of GST tagged truncated human mutant G2019S LRRK2 (Q5S007 970-2527 G2019S): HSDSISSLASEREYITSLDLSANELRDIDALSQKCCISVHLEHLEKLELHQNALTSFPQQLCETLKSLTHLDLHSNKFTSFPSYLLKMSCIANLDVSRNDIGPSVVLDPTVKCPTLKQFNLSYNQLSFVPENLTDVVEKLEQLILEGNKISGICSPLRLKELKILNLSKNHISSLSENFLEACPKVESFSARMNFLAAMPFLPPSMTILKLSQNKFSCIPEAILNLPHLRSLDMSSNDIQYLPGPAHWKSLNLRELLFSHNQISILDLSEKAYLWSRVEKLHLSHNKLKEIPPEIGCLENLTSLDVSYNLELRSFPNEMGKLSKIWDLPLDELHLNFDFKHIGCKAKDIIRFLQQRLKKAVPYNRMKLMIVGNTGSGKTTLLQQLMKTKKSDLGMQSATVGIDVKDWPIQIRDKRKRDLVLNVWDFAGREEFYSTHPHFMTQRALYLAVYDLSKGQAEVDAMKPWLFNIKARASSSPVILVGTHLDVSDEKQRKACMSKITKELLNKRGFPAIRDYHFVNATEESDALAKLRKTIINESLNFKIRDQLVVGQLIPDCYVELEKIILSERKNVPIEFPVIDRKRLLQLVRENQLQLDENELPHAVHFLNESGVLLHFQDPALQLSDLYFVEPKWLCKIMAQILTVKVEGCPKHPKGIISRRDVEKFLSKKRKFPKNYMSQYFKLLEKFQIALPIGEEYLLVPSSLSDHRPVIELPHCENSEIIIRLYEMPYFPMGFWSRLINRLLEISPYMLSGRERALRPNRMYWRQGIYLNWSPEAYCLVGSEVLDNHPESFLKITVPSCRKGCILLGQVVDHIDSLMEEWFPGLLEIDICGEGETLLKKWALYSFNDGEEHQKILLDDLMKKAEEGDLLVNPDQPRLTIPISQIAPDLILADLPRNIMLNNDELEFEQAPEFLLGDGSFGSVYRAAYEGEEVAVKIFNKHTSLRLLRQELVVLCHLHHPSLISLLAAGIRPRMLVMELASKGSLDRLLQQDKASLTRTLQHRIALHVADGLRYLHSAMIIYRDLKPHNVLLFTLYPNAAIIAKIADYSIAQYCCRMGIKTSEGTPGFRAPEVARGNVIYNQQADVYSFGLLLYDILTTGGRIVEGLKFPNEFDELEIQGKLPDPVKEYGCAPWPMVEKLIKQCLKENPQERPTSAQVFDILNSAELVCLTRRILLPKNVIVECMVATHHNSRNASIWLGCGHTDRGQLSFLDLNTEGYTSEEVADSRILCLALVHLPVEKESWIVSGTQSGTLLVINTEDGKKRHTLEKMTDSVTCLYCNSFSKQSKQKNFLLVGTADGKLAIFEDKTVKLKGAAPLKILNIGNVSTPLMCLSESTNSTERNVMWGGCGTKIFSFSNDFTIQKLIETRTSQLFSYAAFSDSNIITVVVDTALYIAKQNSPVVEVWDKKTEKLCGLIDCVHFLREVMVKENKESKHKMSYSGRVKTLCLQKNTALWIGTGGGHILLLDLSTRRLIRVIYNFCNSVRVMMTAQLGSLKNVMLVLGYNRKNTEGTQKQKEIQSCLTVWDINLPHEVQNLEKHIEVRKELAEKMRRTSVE

For O=S1(=O)CC(N2CC[C@@H](c3cc4nc(Nc5cnn(C6CC6)c5Cl)ncc4cc3Cl)[C@H](F)C2)C1 (single isomer, unassigned), which “LRRK2 pIC50” value is on record?
The value was 8.52.

With O=S1(=O)CC(N2CC[C@H](c3cc4nc(Nc5cnn(C6CC6)c5Cl)ncc4cc3Cl)[C@@H](F)C2)C1 (single isomer, unassigned) as the molecule, how does the “LRRK2 pIC50” value read?
The value was 9.02.

For Cc1c(Nc2ncc3cc(Cl)c(C4CCN(C5CC[C@H]5O)CC4)cc3n2)cnn1C1CC1 (single isomer, unassigned) [Ex-1.5, (1R,2S) or (1R,2R) or (1S,2S) or (1S,2R) 2-(4-(6-chloro-2-((1-cyclopropyl-5-methyl-1H-pyrazol-4-yl)amino)quinazolin-7-yl)piperidin-1-yl)cyclobutan-1-ol], which “LRRK2 pIC50” value is on record?
Its value is over 9.20.

For Cc1c(Nc2ncc3cc(Cl)c(C4CCN(C5CC[C@@H]5O)CC4)cc3n2)cnn1C1CC1 (single isomer, unassigned) [Ex-1.6, (1R,2S) or (1R,2R) or (1S,2S) or (1S,2R) 2-(4-(6-chloro-2-((1-cyclopropyl-5-methyl-1H-pyrazol-4-yl)amino)quinazolin-7-yl)piperidin-1-yl)cyclobutan-1-ol], which “LRRK2 pIC50” value is on record?
The value was over 9.20.

Which “LRRK2 pIC50” value does the source give for C[C@@]1(N2CCC(c3cc4nc(Nc5cnn(C6CC6)c5Cl)ncc4cc3Cl)CC2)COC[C@@H]1O (single isomer, unassigned) [Ex-1.7, (3R,4R)- or (3S,4S)-4-(4-(6-chloro-2-((5-chloro-1-cyclopropyl-1H-pyrazol-4-yl)amino)quinazolin-7-yl)piperidin-1-yl)-4-methyltetrahydrofuran-3-ol] here?
Its value is over 9.20.

For Cc1c(Nc2ncc3cc(Cl)c(C4CCN([C@@]5(C)COC[C@H]5O)CC4)cc3n2)cnn1C1CC1 (single isomer, unassigned) [Ex-1.15, (3S,4S) or (3R,4R) 4-(4-(6-chloro-2-((1-cyclopropyl-5-methyl-1H-pyrazol-4-yl)amino)quinazolin-7-yl)piperidin-1-yl)-4-methyltetrahydrofuran-3-ol], which “LRRK2 pIC50” value is on record?
Its value is 8.16.

With Cc1c(Nc2ncc3cc(Cl)c(C4CCN([C@]5(C)COC[C@@H]5O)CC4)cc3n2)cnn1C1CC1 (single isomer, unassigned) [Ex-1.16, (3S,4S) or (3R,4R) 4-(4-(6-chloro-2-((1-cyclopropyl-5-methyl-1H-pyrazol-4-yl)amino)quinazolin-7-yl)piperidin-1-yl)-4-methyltetrahydrofuran-3-ol] as the molecule, how does the “LRRK2 pIC50” value read?
Its value is over 9.20.

Which “LRRK2 pIC50” value does the source give for Cc1c(Nc2ncc3cc(Cl)c(C4CCN(C5(C)CCCC5O)CC4)cc3n2)cnn1C1CC1 (single isomer, unassigned) [Ex-1.19, (1R,2S) or (1S,2R) or (1S,2S) or (1R,2R) 2-(4-(6-chloro-2-((1-cyclopropyl-5-methyl-1H-pyrazol-4-yl)amino)quinazolin-7-yl)piperidin-1-yl)-2-methylcyclopentan-1-ol] here?
Its value is 7.59.

With Cc1c(Nc2ncc3cc(Cl)c(C4CCN(C5(C)CCCC5O)CC4)cc3n2)cnn1C1CC1 (single isomer, unassigned) [Ex-1.20, (1R,2S) or (1S,2R) or (1S,2S) or (1R,2R) 2-(4-(6-chloro-2-((1-cyclopropyl-5-methyl-1H-pyrazol-4-yl)amino)quinazolin-7-yl)piperidin-1-yl)-2-methylcyclopentan-1-ol] as the molecule, how does the “LRRK2 pIC50” value read?
Its value is 8.84.

same assay, conditions: G2019S LRRK2, 134 μM ATP (Km ATP), mean values; read-out: LRRK2 pIC50 (converted)

Which IC50 does the source give for O=S1(=O)CCC(N2CCC(c3cc4nc(Nc5cnn(CC(F)F)c5Cl)ncc4cc3Cl)CC2)C1 (racemic) [Ex-4.6, (S) and (R) 3-(4-(6-chloro-2-((5-chloro-1-(2,2-difluoroethyl)-1H-pyrazol-4-yl)amino)quinazolin-7-yl)piperidin-1-yl)tetrahydrothiophene 1,1-dioxide] here?
Its IC50 is under 0.631 nM.

For CCn1ncc(Nc2ncc3cc(Cl)c(C4CC45CC5)cc3n2)c1C (single isomer, unassigned) [Ex-1.1, (S) or (R) 6-chloro-N-(1-ethyl-5-methyl-1H-pyrazol-4-yl)-7-(spiro[2.2]pentan-1-yl)quinazolin-2-amine], which IC50 is on record?
The IC50 was 11.7 nM.

Which IC50 does the source give for CCn1ncc(Nc2ncc3cc(Cl)c(C4CC45CC5)cc3n2)c1C (single isomer, unassigned) [Ex-1.2, (S) or (R) 6-chloro-N-(1-ethyl-5-methyl-1H-pyrazol-4-yl)-7-(spiro[2.2]pentan-1-yl)quinazolin-2-amine] here?
The IC50 was 186 nM.

With CC(C)(O)CN1CCC(c2cc3nc(Nc4cnn(C5CC5)c4)ncc3cc2Cl)C1 (single isomer, unassigned) [Ex-1.4, (S) or (R) 1-(3-(6-chloro-2-((1-cyclopropyl-1H-pyrazol-4-yl)amino)quinazolin-7-yl)pyrrolidin-1-yl)-2-methylpropan-2-ol] as the molecule, how does the IC50 read?
The IC50 was 24 nM.

With C[C@@]1(N2CCC(c3cc4nc(Nc5cnn(C6CC6)c5Cl)ncc4cc3Cl)CC2)COC[C@@H]1O (single isomer, unassigned) [Ex-1.8, (3R,4R)- or (3S,4S)-4-(4-(6-chloro-2-((5-chloro-1-cyclopropyl-1H-pyrazol-4-yl)amino)quinazolin-7-yl)piperidin-1-yl)-4-methyltetrahydrofuran-3-ol] as the molecule, how does the IC50 read?
The IC50 was 1.55 nM.

CC(C)(O)CN1CCC(c2cc3nc(Nc4cnn(C5CC5)c4)ncc3cc2Cl)C1 (single isomer, unassigned) [Ex-1.9, (S) or (R) 1-(3-{6-chloro-2-[(1-cyclopropyl-1H-pyrazol-4-yl)amino]quinazolin-7-yl}pyrrolidin-1-yl)-2-methylpropan-2-ol] was tested. Which IC50 did it give?
The IC50 was 30.2 nM.

How did the IC50 turn out when CC(C)(O)CN1CCC(c2cc3nc(Nc4cnn(C5CC5)c4)ncc3cc2Cl)C1 (single isomer, unassigned) [Ex-1.10, (S) or (R) 1-(3-{6-chloro-2-[(1-cyclopropyl-1H-pyrazol-4-yl)amino]quinazolin-7-yl}pyrrolidin-1-yl)-2-methylpropan-2-ol] was run?
The IC50 was 28.2 nM.

C[C@@H]1CC(c2cc3nc(Nc4cnn(C5CC5)c4Cl)ncc3cc2Cl)CCN1C1COC1 (single isomer, unassigned) [Ex-1.11, (S) or (R) 6-chloro-N-(5-chloro-1-cyclopropyl-1H-pyrazol-4-yl)-7-(2-methyl-1-(oxetan-3-yl)piperidin-4-yl)quinazolin-2-amine] was tested. Which IC50 did it give?
Its IC50 is under 0.631 nM.

For C[C@H]1CC(c2cc3nc(Nc4cnn(C5CC5)c4Cl)ncc3cc2Cl)CCN1C1COC1 (single isomer, unassigned) [Ex-1.12, (S) or (R) 6-chloro-N-(5-chloro-1-cyclopropyl-1H-pyrazol-4-yl)-7-(2-methyl-1-(oxetan-3-yl)piperidin-4-yl)quinazolin-2-amine], which IC50 is on record?
Its IC50 is 0.741 nM.

Cc1c(Nc2ncc3cc(Cl)c(C4CCN(C5COC5)[C@H](C)C4)cc3n2)cnn1C1CC1 (single isomer, unassigned) [Ex-1.13, (S) or (R) 6-chloro-N-(1-cyclopropyl-5-methyl-1H-pyrazol-4-yl)-7-(2-methyl-1-(oxetan-3-yl)piperidin-4-yl)quinazolin-2-amine] was tested. Which IC50 did it give?
Its IC50 is 0.776 nM.

How did the IC50 turn out when Cc1c(Nc2ncc3cc(Cl)c(C4CCN(C5COC5)[C@@H](C)C4)cc3n2)cnn1C1CC1 (single isomer, unassigned) [Ex-1.14, (S) or (R) 6-chloro-N-(1-cyclopropyl-5-methyl-1H-pyrazol-4-yl)-7-(2-methyl-1-(oxetan-3-yl)piperidin-4-yl)quinazolin-2-amine] was run?
The IC50 was under 0.631 nM.

Cc1c(Nc2ncc3cc(Cl)c(C4CCN(C5CCCC5(F)F)CC4)cc3n2)cnn1C1CC1 (single isomer, unassigned) [Ex-1.21, (S) or (R) 6-chloro-N-(1-cyclopropyl-5-methyl-1H-pyrazol-4-yl)-7-[1-(2,2-difluorocyclopentyl)piperidin-4-yl]quinazolin-2-amine] was tested. Which IC50 did it give?
The IC50 was 1.86 nM.
